Measurements from article PMC10459838 (Veterinary Sciences, 2023).
Where two headings read alike, the source gives them in different places.

Legend:
[1] = Cell viability assay (MTT, Cell Proliferation Kit I); type: cell-based, feline; conditions: cat
Protocol: (§1) The Crandell-Reese feline kidney (CRFK) cells utilized in this study were purchased from American Type Culture Collection (ATCC, Manassas, VA, USA), and cultured in Eagle’s Minimum Essential Medium (EMEM) medium supplemented with 10% fetal bovine serum (FBS), 1% antibiotics (penicillin and streptomycin), and 1% non-essential amino acids. The reagents were obtained from ATCC. The CRFK cells were incubated at 37 °C with 5% CO2.
(§2) The cell viability of CRFK cells was measured using a Cell Proliferation Kit I (MTT) (Roche Applied Science, Indianapolis, IN, USA), following the manufacturer’s instructions. […] After incubation for 48 h, 10 μL of MTT solution (0.5 mg/mL in phosphate-buffered saline) was added to each well. The plate was incubated for 4 h at 37 °C to allow the formation of formazan crystals. Following incubation, 1% sodium dodecyl sulfate (100 μL) solution was added to dissolve the crystals.

CRFK cells [2] = experiment: as above; type: cell-based, feline
Protocol: as §1, §2

[3] = tested on: FIPV serotype II strain (WSU-79-1146); experiment: Antiviral efficacy against FIPV replication in CRFK cells, viral load by qRT-PCR; type: cell-based, feline infectious peritonitis virus; conditions: for Selectivity index (SI) = (mean CC50)/(mean EC50): against FIPV in CRFK cells; for Viral load (FIPV RNA copies) / FIPV viral copies with GS441524: GS441524 25 µM; for Viral load (FIPV RNA copies): inoculum […] 10^4 TCID50/mL
CRFK cells [4] = conditions: 48 h
FIPV = tested on: FIPV; parameters: method as in earlier work; conditions: ref 39 (Jiao, Yan et al.); cited from earlier work
COVID-19 = tested on: COVID-19; parameters: method as in PMID 34933447; conditions: co-administered with ritonavir within 3 to 5 days of COVID-19 symptom onset; cited from earlier work
[5] = CRFK cells (Crandell-Reese feline kidney), CRFK cells treated with drugs for 48 h, MTT assay (Figure 5), read-out: 50% cytotoxic concentration (CC50)
[6] = Alphacoronavirus 1, CRFK, 48 h, CRFK cells, FIPV […] 10^4 TCID50/mL, 48 h, qRT-PCR, read-out: 50% effective concentration (EC50) against FIPV replication
[7] = CRFK cells treated with drugs for 48 h, MTT assay (Figure 5), read-out: 50% cytotoxic concentration (CC50)
[8] = CRFK cells, FIPV […] 10^4 TCID50/mL, 48 h, qRT-PCR, read-out: 50% effective concentration (EC50) against FIPV replication

Compound: C/C(O)=C(\C#N)C(=O)Nc1ccc(C(F)(F)F)cc1 [Teriflunomide]
- CC50 at 48 h [1, 5]: 134 µM
- Concentration as high as which the drug could be used safely with minimal cytotoxicity (CRFK cells [2]; CRFK cells, 48 h, MTT staining): 62.5 µM
- EC50 [3, 6]: 49.6 µM
- Highest concentration with essentially no cytotoxicity (CRFK cells [4]; cat): 63 µM

Compound: CC(C)c1nc(CN(C)C(=O)N[C@H](C(=O)N[C@@H](Cc2ccccc2)C[C@H](O)[C@H](Cc2ccccc2)NC(=O)OCc2cncs2)C(C)C)cs1 [Ritonavir]
- Concentration as high as which the drug could be used safely with minimal cytotoxicity (CRFK cells [2]; cat, 48 h): 16 µM
- Cytopathic effects (CPEs) in FIPV-infected cells ([3]; 5 µM, 10-fold dilutions): induced CPEs
- Cytopathic effects (CPEs) in FIPV-infected cells ([3]; 50 µM, 10-fold dilutions): induced CPEs
- EC50 [3, 6]: 17.6 µM
- Highest concentration with essentially no cytotoxicity (CRFK cells [4]; cat): 16 µM
- Lowest concentration at which cytotoxicity was observed (CRFK cells [4]; cat): 31 µM

Compound: CC(C)(C)[C@H](NC(=O)C(F)(F)F)C(=O)N1C[C@H]2[C@@H]([C@H]1C(=O)N[C@H](C#N)C[C@@H]1CCNC1=O)C2(C)C [Nirmatrelvir]
- CC50 at 48 h [1, 7]: 279 µM
- Concentration as high as which the drug could be used safely with minimal cytotoxicity (CRFK cells [2]; CRFK cells, 48 h, MTT staining): 63 µM
- Cytopathic effects (CPEs) in FIPV-infected cells ([3]; 5 µM, 10-fold dilutions): no CPEs in cells
- EC50 ([3]; Alphacoronavirus 1, CRFK, 48 h, read-out: 50% effective concentration (EC50) against FIPV replication, CRFK cells, FIPV […] 10^4 TCID50/mL, 48 h, qRT-PCR): 2.46 µM
- inhibition at 5 µM ([3]; Alphacoronavirus 1, CRFK, read-out: Inhibition of FIPV replication): 80%
- Selectivity index (SI) = (mean CC50)/(mean EC50) [3]: 113.7
- Selectivity index (SI) = (mean CC50)/(mean EC50) ([3]; listed as nirmatrelvir): 113.67
- EC50 ([3]; read-out: 50% effective concentration (EC50) against FIPV replication, CRFK cells, FIPV […] 10^4 TCID50/mL, 48 h, qRT-PCR): 2.5 µM
- Highest concentration with essentially no cytotoxicity (CRFK cells [4]; CRFK cells, CellTox Green): 63 µM
- EC50 (FIPV): 2.52 µM
- Reduction in hospitalizations and death (COVID-19): 89%

Compound: N#C[C@@]1(c2ccc3c(N)ncnn23)O[C@H](CO)[C@@H](O)[C@H]1O [GS441524, GS-441524]
- CC50 at 48 h [1, 7]: 260 µM
- CC50 (CRFK cells [2]; [7]): 260 µM
- Cytopathic effects (CPEs) in FIPV-infected cells ([3]; 0.5 µM, 10-fold dilutions): no CPEs observed in cells
- Reduction in FIPV copy number ([3]; 0.98 µM, two-fold dilutions, 48 hpi): 22.5%
- Lowest concentration with anti-FIPV efficacy compared to no-drug group ([3]; 10-fold dilutions, 48 hpi): 0.5 µM
- EC50 [3, 6]: 1.57 µM
- inhibition at 0.5 µM ([3]; Alphacoronavirus 1, CRFK, 0.5 µM, 10-fold dilutions, 48 hpi): 85%
- inhibition at […] ([3]; Alphacoronavirus 1, CRFK, 7.8 µM, two-fold dilutions, 48 hpi): 98.3%
- EC50 [3, 8]: 1.6 µM
- Viral load (FIPV RNA copies) ([3]; 0 hpi (applied at inoculation, remained), 24 h): 2.58 × 10^4 per ml
- Viral load (FIPV RNA copies) ([3]; 0 hpi, 48 h): 1.97 × 10^4 per ml
- Viral load (FIPV RNA copies) ([3]; 0 hpi, 72 h): 2.04 × 10^4 per ml
- Viral load (FIPV RNA copies) ([3]; +1 hpi (applied 1 h post inoculation), 24 h): 2.84 × 10^4 per ml
- Viral load (FIPV RNA copies) ([3]; +1 hpi, 48 h): 1.52 × 10^4 per ml
- Viral load (FIPV RNA copies) ([3]; +1 hpi, 72 h): 1.39 × 10^4 per ml
- FIPV viral copies with GS441524 ([3]; FIPV inoculum […] 10^2 TCID50/mL, 48 h): 4.60 × 10^1 per ml
- FIPV viral copies with GS441524 ([3]; FIPV inoculum […] 10^2 TCID50/mL, 72 h): 2.36 × 10^1 per ml
- FIPV viral copies with GS441524 ([3]; FIPV inoculum […] 10^3 TCID50/mL, 48 h): 3.48 × 10^2 per ml
- FIPV viral copies with GS441524 ([3]; FIPV inoculum […] 10^3 TCID50/mL, 72 h): 2.09 × 10^2 per ml
- FIPV viral copies with GS441524 ([3]; FIPV inoculum […] 10^4 TCID50/mL, 48 h): 2.76 × 10^3 per ml
- FIPV viral copies with GS441524 ([3]; FIPV inoculum […] 10^4 TCID50/mL, 72 h): 3.24 × 10^3 per ml
- Viral load (FIPV RNA copies) ([3]; −2 & +1 hpi (applied 2 h before, removed, applied again at 1 hpi), 24 h): 2.47 × 10^4 per ml
- Viral load (FIPV RNA copies) ([3]; −2 hpi (applied 2 h before inoculation, removed before inoculation), 24 h): 1.97 × 10^4 per ml
- Viral load (FIPV RNA copies) ([3]; −2 hpi, 48 h): 2.94 × 10^5 per ml
- Viral load (FIPV RNA copies) ([3]; −2 hpi, 72 h): 6.89 × 10^6 per ml
- Lowest concentration with antiviral efficacy ([3]; two-fold dilutions, 48 hpi): 0.98 µM

Compound: N#CC[C@H](C1CCCC1)n1cc(-c2ncnc3[nH]ccc23)cn1 [Ruxolitinib]
- CC50 at 48 h ([1]; 50% cytotoxic concentration (CC50)): 338 µM
- CC50 (CRFK cells [2]; cat, 48 h): 338 µM
- EC50 ([3]; Alphacoronavirus 1, CRFK, 48 h, read-out: 50% effective concentration (EC50) against FIPV replication): 43.6 µM
- Lowest concentration at which cytotoxicity was observed (CRFK cells [4]; CRFK cells, cytotoxicity assay): 250 µM

Compound: CC(C)C(=O)OC[C@H]1O[C@@H](n2ccc(NO)nc2=O)[C@H](O)[C@@H]1O [Molnupiravir]
- CC50 at 48 h [1, 5]: 235 µM
- CC50 (CRFK cells [2]; [7]): 235 µM
- Concentration as high as which the drug could be used safely with minimal cytotoxicity (CRFK cells [2]; CRFK cells, 48 h, MTT staining): 63 µM
- EC50 [3, 6]: 8 µM
- EC50 [3, 8]: 8.04 µM
- Selectivity index (SI) = (mean CC50)/(mean EC50) [3]: 29.3
- Selectivity index (SI) = (mean CC50)/(mean EC50) ([3]; listed as molnupiravir): 29.27
- Highest concentration with essentially no cytotoxicity (CRFK cells [4]; CRFK cells, CellTox Green): 63 µM
